Laboratory results as given in PubChem BioAssay (NCI).
“And” between values parts separate entries of the source, which are not always exact repeats. Equal entries are not always repeated.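 Following 48 hours of exposure in 96-well plates, responses at five concentrations were used to interpolate endpoints linearly. Here, GI50 denotes the concentration required for 50% inhibition of growth. TGI denotes the concentration required for complete inhibition of growth.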

How the values were obtained:
Assay in all cases: inhibition of tumour cell growth, NCI panel, 48 h
RPMI-8226 leukemia = system: RPMI-8226 leukemia
CCRF-CEM leukemia = system: CCRF-CEM leukemia
SNB-19 CNS = system: SNB-19 CNS
HCC-2998 colon = system: HCC-2998 colon
786-0 renal = system: 786-0 renal
ACHN renal = system: ACHN renal
U251 CNS = system: U251 CNS
RXF 393 renal = system: RXF 393 renal
DU-145 prostate = system: DU-145 prostate
BT-549 breast = system: BT-549 breast

| Compound | TGI (RPMI-8226 leukemia) | TGI (CCRF-CEM leukemia) | TGI (SNB-19 CNS) | TGI (HCC-2998 colon) | TGI (786-0 renal) | TGI (ACHN renal) | TGI (U251 CNS) | TGI (RXF 393 renal) | GI50 (RPMI-8226 leukemia) | GI50 (CCRF-CEM leukemia) | GI50 (SNB-19 CNS) | GI50 (DU-145 prostate) | TGI (DU-145 prostate) | GI50 (HCC-2998 colon) | GI50 (786-0 renal) | GI50 (ACHN renal) | GI50 (BT-549 breast) | TGI (BT-549 breast) | GI50 (U251 CNS) | GI50 (RXF 393 renal) |
| --- | --- | --- | --- | --- | --- | --- | --- | --- | --- | --- | --- | --- | --- | --- | --- | --- | --- | --- | --- | --- |
| CC(C)N1C(C)[C@@H](c2ccccc2)O[P@]1(=O)CC1=CCCCC1 (stereo partly drawn) | > 100 µM | > 100 µM | > 100 µM | > 100 µM | > 100 µM | > 100 µM | > 100 µM | > 100 µM |  |  |  |  |  |  |  |  |  |  |  |  |
| O=c1[nH]cc(C(F)(C(F)(F)F)C(F)(F)F)c(=O)[nH]1 | > 100 µM | > 100 µM | > 100 µM |  | > 100 µM | > 100 µM | > 100 µM | > 100 µM |  |  |  |  |  |  |  |  |  |  |  |  |
| CN1CCN(c2ccc3nc(-c4ccc(OCCCCN5CCN(CCCCN6C(=O)c7cccc8cccc(c78)C6=O)CC5)cc4)[nH]c3c2)CC1 | > 100 µM | > 100 µM | > 100 µM | > 100 µM | > 100 µM | 64.1 µM | > 100 µM |  | 33.9 µM | 47.8 µM | > 100 µM | 29.4 µM | > 100 µM | > 100 µM | > 100 µM | 25.6 µM | 40.4 µM | > 100 µM | 27.9 µM |  |
| O=S1(=O)c2ccccc2N=C(c2ccccc2Cl)CC1c1ccc(F)cc1 (stereo not drawn) | 14.4 µM | 50.5 µM | 31.4 µM | 28.4 µM | 30.5 µM | 32.6 µM | 28.4 µM | 20.1 µM |  |  |  |  |  |  |  |  |  |  |  |  |
| CCCCCCCCCCCCCCCCCC(=O)NCC(COP(=O)(O)O)OCC (stereo not drawn) | > 100 µM | > 100 µM | 90.2 µM | > 100 µM | > 100 µM |  |  |  |  |  |  |  |  |  |  |  |  |  |  |  |
| COc1ccc2c(c1)c1c3n2CCNN=C3CCC1 | > 100 µM | > 100 µM | > 100 µM | > 100 µM | > 100 µM | > 100 µM | > 100 µM |  |  |  |  |  |  |  |  |  |  |  |  |  |
| c1ccc(-c2ccnc3c2ccc2c(-c4ccccc4)ccnc23)cc1 |  | 2.84 µM | 13.9 µM | 14.3 µM | 10.4 µM | 9.45 µM | 6.79 µM | 6.05 µM |  |  |  |  |  |  |  |  |  |  |  |  |
| Cc1noc(/N=C2\C=C(Nc3onc(C)c3C)C(=O)c3ccccc32)c1C | > 100 µM | > 100 µM | > 100 µM | > 100 µM | > 100 µM | > 100 µM | > 100 µM | > 100 µM |  |  |  |  |  |  |  |  |  |  |  |  |
| CCOC(=O)c1c(C)n(Cc2ccccc2)c2c1cc1oc(=O)c(=O)n3cnc2c13 | 14.1 µM |  | > 50 µM |  | > 50 µM | 39.9 µM | > 50 µM | > 50 µM | 1.86 µM |  | 42.4 µM | 11.8 µM | > 50 µM |  | 13.7 µM | 9.91 µM | 16.2 µM | 34.2 µM | 12 µM | 16 µM |
| CCN(CC)Cc1cc(Nc2c3ccccc3nc3cc(Cl)ccc23)ccc1O | 6.27 µM | > 100 µM | 5.27 µM |  | 2.46 µM | 2.97 µM | 2.89 µM | 2.58 µM | 2.32 µM | 2.59 µM | 2.04 µM | 2.63 µM | 9.69 µM |  | 1.21 µM | 1.47 µM | 1.95 µM | 3.48 µM | 1.39 µM | 1.28 µM |
| COC(=O)C(=O)C(C(=O)C(=O)Nc1cc(Cl)c(Cl)cc1Cl)c1nc2ccc([N+](=O)[O-])cc2[nH]c1=O (stereo not drawn) | > 100 µM | > 100 µM | > 100 µM | > 100 µM | > 100 µM | > 100 µM | > 100 µM | > 100 µM |  |  |  |  |  |  |  |  |  |  |  |  |
| Cc1cc(Br)cc(C)c1NC(=O)C(=O)Nn1c(=S)[nH]c2ccccc2c1=O | > 100 µM | > 100 µM | > 100 µM | > 100 µM | > 100 µM | > 100 µM | > 100 µM | > 100 µM |  |  |  |  |  |  |  |  |  | > 100 µM |  |  |
| COC(=O)C(C(=O)C(N)=O)c1csc(-n2nc(-c3ccccc3)cc2-c2ccccc2)n1 (stereo not drawn) | > 31.6 µM | > 31.6 µM | 17.2 µM | > 31.6 µM | > 31.6 µM | > 31.6 µM | > 31.6 µM | > 31.6 µM |  |  |  |  |  |  |  |  |  |  |  |  |
| CCCOC(=O)C1C2CCC(O2)C1C(=O)O (stereo not drawn) | > 100 µM | > 100 µM | > 100 µM |  | > 100 µM | > 100 µM | > 100 µM | > 100 µM |  |  |  |  | > 100 µM |  |  |  |  | > 100 µM |  |  |
| C#CCOCn1cnc2ncnc(N)c21 | > 100 µM | > 100 µM | > 100 µM | > 100 µM | > 100 µM | > 100 µM | > 100 µM | > 100 µM |  |  |  |  |  |  |  |  |  |  |  |  |
| C/C(CC(=O)Nc1cccc([N+](=O)[O-])c1)=N\NC(=O)CC#N | > 100 µM | > 100 µM |  | > 100 µM | > 100 µM |  | > 100 µM | > 100 µM |  |  |  |  |  |  |  |  |  |  |  |  |
| CC(=O)OC(=O)O/C=C\CCl | > 100 µM | > 100 µM | > 100 µM | > 100 µM | > 100 µM | > 100 µM | > 100 µM | > 100 µM |  |  |  |  |  |  |  |  |  |  |  |  |
| CC(=O)[C-](C(C)=O)c1ccccc1.CC(=O)[C-](C(C)=O)c1ccccc1.CC(=O)[C-](C(C)=O)c1ccccc1.[Cl-].[Zr+4] | > 100 µM |  | > 100 µM |  | > 100 µM |  | > 100 µM | 98.3 µM | > 100 µM |  | 82.9 µM |  |  |  | 38.7 µM |  |  |  | 58 µM | 28.1 µM |
| O=Cc1ccc(N2CCN(c3ccc(C=O)cc3)CC2)cc1 | > 100 µM | > 100 µM | > 100 µM | > 100 µM | > 100 µM | > 100 µM | > 100 µM | > 100 µM | > 100 µM | > 100 µM | > 100 µM | > 100 µM | > 100 µM | 60.8 µM | > 100 µM | > 100 µM |  |  | > 100 µM | 67.2 µM |
| Cc1c2ccncc2c(C)c2c1[nH]c1ccc(Cl)cc12 | 9.7 µM and 4.43 µM | 4.43 µM and 6.3 µM | 8.36 µM and 15.5 µM | 19.3 µM and 13.9 µM | 2.27 µM | 13.1 µM | 11.5 µM and 2.94 µM | 9.91 µM | 1.77 µM |  | 3 µM |  |  | 2.34 µM |  |  |  |  | 1.49 µM |  |
| CC(=O)NC(CCCN(Cc1ccccc1)C(=O)N(C)N=O)C(=O)NCc1ccccc1 (stereo not drawn) | > 100 µM | > 100 µM | > 100 µM | > 100 µM | > 100 µM | > 100 µM | > 100 µM | > 100 µM |  |  |  |  |  |  |  |  |  |  |  |  |
| CC(=O)c1c2c(cc3c1CC1(C3)Cc3cc4c(c(C(=O)O)c3C1)CCC4)CCC2 (stereo not drawn) |  | 69.7 µM | > 100 µM | > 100 µM | > 100 µM | > 100 µM | 70.6 µM | > 100 µM |  |  |  |  |  |  |  |  |  |  |  |  |
